Results published in patent US11091477B2 (Madera Therapeutics, LLC, priority 2016, dated 2021).
Like-named read-outs stand apart in the source and are kept apart here.

How the values were obtained:
[1] = test system: HCT116 (human colon cancer); experiment: CCK-8 cell viability assay on HCT116 human colon cancer cells; assay type: cell-based; conditions: HCT-116, 48 h
Protocol: The plate is incubated for 48 hours.

SUM159 = experiment: CCK-8 cell viability assay on SUM159 human breast cancer cells; conditions: for EC50: Homo sapiens, SUM159, 72 h, read-out: EC50 (uM, SUM159); for potency on human cancer lines in comparison to TIC10: SUM159 cells, 72 hours, versus TIC10
Protocol: The plate was incubated for 24 hours in a humidified incubator (37° C., 5% CO2). The compound from the present invention, at the appropriate test concentrations, are added to the culture media of the plate. The plate is incubated for 48 hours. CCK-8 (10 ul, see below) is added to each well. The plate is incubated from 1-4 h under conditions as described above, and the absorbance at 450 nm and 650 nm is measured with a plate reader.
Cell Counting was by CCK-8 using WST-8 (2-(2-methoxy-4-nitrophenyl)-3-(4-nitrophenyl)-5-(2,4-disulfophenyl)-2H-tetrazolium, monosodium salt), which produces a water-soluble formazan dye upon bioreduction in the presence of an electron carrier, 1-Methoxy PMS. CCK-8 solution is added directly to the cells. WST-8 is bioreduced by cellular dehydrogenases to an orange formazan product that is soluble in tissue culture medium. The amount of formazan produced is directly proportional to the number of living cells.

[2] = HCT116 cells, 48 hours compound incubation, CCK-8, read-out: EC50 (uM, HCT116)

EC50 [1, 2] [µM]	Structure (SMILES)	also measured
–	Cn1c2c(c(=O)n(Cc3cccc(C(F)(F)F)c3)c1=O)CN(Cc1ccccc1)CC2 [Example 13]	EC50 ([1]; read-out: EC50 (uM, HCT116)): 1.4 µM
1.4	C#Cc1cccc(CN2CCc3c(c(=O)n(Cc4ccc(C(F)(F)F)cc4)c(=O)n3C)C2)c1 [Example 18, 6-(3-ethynylbenzyl)-1-methyl-3-(4-(trifluoromethyl)benzyl)-5,6,7,8-tetrahydropyrido[4,3-d]pyrimidine-2,4(1H,3H)-dione]	–
2.5	CCn1c2c(c(=O)n(Cc3cccc(C(F)(F)F)c3)c1=O)CN(Cc1ccccc1)CC2 [Example 14, 3-(3-(trifluoromethyl)benzyl)-6-benzyl-1-ethyl-5,6,7,8-tetrahydropyrido[4,3-d]pyrimidine-2,4(1H,3H)-dione]	–
–	Cc1ccccc1CN1C(=O)C2=C(CCN(Cc3ccccc3)C2)N2CCN=C12 [TIC10, 11-benzyl-7-[(2-methylphenyl)methyl]-2,5,7,11-tetraazatricyclo[7.4.0.0^2,6]trideca-1(9),5-dien-8-one, reference compound]	EC50 ([1]; read-out: EC50 (uM, HCT116)): 2.8 µM; EC50 (SUM159): 1.4 µM
0.26	Cn1c2c(c(=O)n(Cc3ccc(Cl)cc3)c1=O)CN(Cc1ccccc1)CC2 [Example 6, 6-benzyl-3-(4-chlorobenzyl)-1-methyl-5,6,7,8-tetrahydropyrido[4,3-d]pyrimidine-2,4(1H,3H)-dione]	–
2.6	O=c1[nH]c2c(c(=O)n1Cc1ccc(C(F)(F)F)cc1)CN(Cc1ccccc1)CC2 [Example 8, 3-(4-(trifluoromethyl)benzyl)-6-benzyl-5,6,7,8-tetrahydropyrido[4,3-d]pyrimidine-2,4(1H,3H)-dione]	–
0.1	Cn1c2c(c(=O)n(Cc3ccc(C(F)(F)F)cc3)c1=O)CN(Cc1cccc(Cl)c1)CC2 [Example 22, 6-(3-chlorobenzyl)-1-methyl-3-(4-(trifluoromethyl)benzyl)-5,6,7,8-tetrahydropyrido[4,3-d]pyrimidine-2,4(1H,3H)-dione]	–
7.1	CC(C)n1c2c(c(=O)n(Cc3ccc(C(F)(F)F)cc3)c1=O)CN(Cc1ccccc1)CC2 [Example 10, 3-(4-(trifluoromethyl)benzyl)-6-benzyl-5,6,7,8-tetrahydro-1-isopropylpyrido[4,3-d]pyrimidine-2,4(1H,3H)-dione]	–
–	Cn1c2c(c(=O)n(Cc3ccc(Cl)cc3)c1=O)CN(Cc1cccc(C#N)c1)CC2 [Example 25, 3-((3-(4-chlorobenzyl)-1-methyl-2,4-dioxo-1,2,3,4,7,8-hexahydropyrido[4,3-d]pyrimidin-6(5H)-yl)methyl)benzonitrile]	EC50 ([1]; read-out: EC50 (uM, HCT116)): 0.74 µM; EC50 (SUM159): 0.014 µM; potency on human cancer lines in comparison to TIC10 (SUM159): significant and unanticipated improvements in potency
1.9	CCn1c2c(c(=O)n(Cc3ccc(C(F)(F)F)cc3)c1=O)CN(Cc1cccc(C#N)c1)CC2 [Example 27, 3-((1-ethyl-2,4-dioxo-3-(4-(trifluoromethyl)benzyl)-1,2,3,4,7,8-hexahydropyrido[4,3-d]pyrimidin-6(5H)-yl)methyl)benzonitrile]	–
1.4	C#Cc1cccc(CN2CCc3c(c(=O)n(Cc4ccc(Cl)cc4)c(=O)n3C)C2)c1 [Example 21, 3-(4-chlorobenzyl)-6-(3-ethynylbenzyl)-1-methyl-5,6,7,8-tetrahydropyrido[4,3-d]pyrimidine-2,4(1H,3H)-dione]	–
0.31	Cn1c2c(c(=O)n(Cc3ccc(C(F)(F)F)cc3)c1=O)CN(Cc1ccccc1)CC2 [Example 9]	–
2	Cc1cccc(Cn2c(=O)c3c(n(C(C)C)c2=O)CCN(Cc2ccccc2)C3)c1 [Example 4, 6-benzyl-1-isopropyl-3-(3-methylbenzyl)-5,6,7,8-tetrahydropyrido[4,3-d]pyrimidine-2,4(1H,3H)-dione]	–
0.5	Cn1c2c(c(=O)n(Cc3ccc(C(F)(F)F)cc3)c1=O)CN(Cc1cccc(C#N)c1)CC2 [Example 26, 3-((1-methyl-2,4-dioxo-3-(4-(trifluoromethyl)benzyl)-1,2,3,4,7,8-hexahydropyrido[4,3-d]pyrimidin-6(5H)-yl)methyl)benzonitrile]	EC50 (SUM159): 0.017 µM; potency on human cancer lines in comparison to TIC10 (SUM159): significant and unanticipated improvements in potency
0.21	CCn1c2c(c(=O)n(Cc3ccc(Cl)cc3)c1=O)CN(Cc1cccc(C#N)c1)CC2 [Example 28, 3-((3-(4-chlorobenzyl)-1-ethyl-2,4-dioxo-1,2,3,4,7,8-hexahydropyrido[4,3-d]pyrimidin-6(5H)-yl)methyl)benzonitrile]	–
6.6	CC(C)n1c2c(c(=O)n(Cc3ccc(Cl)cc3)c1=O)CN(Cc1ccccc1)CC2 [Example 7, 6-benzyl-3-(4-chlorobenzyl)-1-isopropyl-5,6,7,8-tetrahydropyrido[4,3-d]pyrimidine-2,4(1H,3H)-dione]	–
1	C#Cc1cccc(CN2CCc3c(c(=O)n(Cc4cccc(C)c4)c(=O)n3C)C2)c1 [Example 20, 6-(3-ethynylbenzyl)-1-methyl-3-(3-methylbenzyl)-5,6,7,8-tetrahydropyrido[4,3-d]pyrimidine-2,4(1H,3H)-dione]	–
2.7	O=c1[nH]c2c(c(=O)n1Cc1ccc(Cl)cc1)CN(Cc1ccccc1)CC2 [Example 5, 6-benzyl-3-(4-chlorobenzyl)-5,6,7,8-tetrahydropyrido[4,3-d]pyrimidine-2,4(1H,3H)-dione]	–
3	Cc1cccc(Cn2c(=O)[nH]c3c(c2=O)CN(Cc2ccccc2)CC3)c1 [Example 2, 6-benzyl-3-[(3-methylphenyl)methyl]-1H, 2H, 3H, 4H, 5H, 6H, 7H, 8H-pyrido[4,3-d]pyrimidine-2,4-dione]	–
3	Cn1c2c(c(=O)n(Cc3cccc(Cl)c3)c1=O)CN(Cc1ccccc1)CC2 [Example 15, 3-(3-chlorobenzyl)-6-benzyl-5,6,7,8-tetrahydro-1-methylpyrido[4,3-d]pyrimidine-2,4(1H,3H)-dione]	–
1.5	C#Cc1cccc(CN2CCc3c(c(=O)n(Cc4ccccc4C)c(=O)n3C)C2)c1 [Example 19, 6-(3-ethynylbenzyl)-1-methyl-3-(2-methylbenzyl)-5,6,7,8-tetrahydropyrido[4,3-d]pyrimidine-2,4(1H,3H)-dione]	–
2.5	Cn1c2c(c(=O)n(Cc3ccc4c(c3)OCO4)c1=O)CN(Cc1ccccc1)CC2 [Example 23, 3-(benzo[d][1,3]dioxol-5-ylmethyl)-6-benzyl-1-methyl-5,6,7,8-tetrahydropyrido[4,3-d]pyrimidine-2,4(1H,3H)-dione]	–
1.1	Cn1c2c(c(=O)n(Cc3cccc(Br)c3)c1=O)CN(Cc1ccccc1)CC2 [Example 17, 6-benzyl-3-(3-bromobenzyl)-1-methyl-5,6,7,8-tetrahydropyrido[4,3-d]pyrimidine-2,4(1H,3H)-dione]	–
0.18	Cc1cccc(Cn2c(=O)c3c(n(C)c2=O)CCN(Cc2ccccc2)C3)c1 [Example 3, 6-benxyl-1-methyl-3-[(3-methylphenyl)methyl]-1H, 2H, 3H, 4H, 5H, 6H, 7H, 8H-pyrido[4,3-d]pyrimidine-2,4-dione]	–
0.022	Cn1c2c(c(=O)n(Cc3ccc(Br)cc3)c1=O)CN(Cc1cccc(C#N)c1)CC2 [Example 24, 3-((3-(4-bromobenzyl)-1-methyl-2,4-dioxo-1,2,3,4,7,8-hexahydropyrido[4,3-d]pyrimidin-6(5H)-yl)methyl)benzonitrile]	–
